In patent US20240206462A1, “ESSENTIAL OIL-BASED AGRICULTURAL COMPOSITION AND METHOD FOR CONTROLLING A PEST USING THE SAME” (MOMENTIVE PERFORMANCE MATERIALS INC., priority 2021, published 2024):

System: tomato grey mold (Botrytis cinerea)
Assay: Plate method growth inhibition of fungal plant pathogen on PDA medium
Format: cell-based
Conditions: concluded from geraniol-based compositions

CC(C)=CCCC(C)=CCO [geraniol, 3,7-dimethylocta-2,6-dien-1-ol]
inhibition activity on Botrytis genus, especially Botrytis cinerea: high inhibition activity
